Data from patent US20090258046A1, “COMPOSITION, FORMULATIONS AND KIT FOR TREATMENT OF RESPIRATORY AND LUNG DISEASE WITH NON-GLUCOCORTICOID STEROIDS AND/OR UBIQUINONE AND A BRONCHODILATING AGENT” (priority 2001, published 2009).

How the values were obtained:
[1] = test system: Intracellular adenosine in various Rat Tissues; test: In vivo effect on tissue adenosine levels in rats (HPLC of 1,N6-ethenoadenosine); set-up: species or system Fischer 344 rats; settings: for Intracellular adenosine, Brain / Intracellular adenosine, Heart / Intracellular adenosine, Liver: mean ± SEM
Description: […] […] Hearts were removed from animals and flash frozen in liquid nitrogen with 10 seconds of death. Liver and lungs were removed en bloc and flash frozen with 30 seconds of death. Brain tissue was subsequently dissected.

[2] = test system: HT-29 SF cells; test: Reversal of DHEA-mediated growth inhibition by medium supplements; type: cell-based, human; settings: 25 μM DHEA, 48 hour treatment; 2 μM MVA, 80 μM SQ, 15 μg/ml CH, RN 30 μM each, DN 20 μM each
Protocol: RN plus DN, or MVA plus CH plus RN, or medium that was not supplemented. All compounds were obtained from Sigma Chemical Co. (St. Louis, Mo.) Cholesterol was solubilized in ethanol immediately before use. […] In A, the medium was supplemented with 2 μM MVA, 80 μM SQ, 15 μg/ml CH, or MVA plus CH (MVA+CH) or was not supplemented (CON). […] RN plus DN (RN+DN); or MVA plus CH plus RN (MVA+CH+RN). […] Columns represent cell growth percentage of untreated controls; bars represent SEM. Increase in cell number in untreated controls was […]. Each data point represents quadruplicate dishes from four independent experiments. Statistical analysis was performed using Student's t test κ ρ<0.01; φ ρ<, 0.001; compared to treated controls.

[3] = test system: HT-29 SF cells; test: Reversal of DHEA effect on cell cycle by medium supplements (flow cytometry); type: cell-based, human; settings: for prevention of DHEA-induced S phase depletion: 2 FM MVA, 15 Fg/ml CH, RN 30 FM
[4] = test system: HT-29 SF cells; test: DHEA effect on cell growth (Coulter counter cell number)
Protocol: Cell cultures, HT-29 SF cells, which represent a subline of HY-29 cells (ATCC, Rockville, Md.) and are adapted for growth in completely defined serum-free PC-1 medium (Ventrex, Portland, Me.), were obtained. Stock cultures were maintained in this medium at 37° (in a humidified atmosphere containing 5% CO2).

[5] = molecular target: purified G6PDH (Homo sapiens, UniProt P11413); test: Enzymatic assay of purified G6PDH (absorbance at 340 nm); settings: in vitro
Protocol: All experiments were repeated 4 times.
A second group was added different concentrations of a CoQ of long side chain (in triplicate), and a third group received a CoQ of short side chain (in triplicate), both at various doses in the μM range.
The reaction was started by addition of the enzyme, and the increase in absorbance at 340 nm was measured for 5 minutes. Each data point was conducted in triplicate, and the fill experiment was repeated 4 times.

[6] = test system: HT-29 SF cells; test: DHEA effect on cell cycle distribution (flow cytometry, propidium iodide); type: cell-based, human
[7] = folinic acid 50 mg/kg intraperitoneally once daily for fourteen days
[8] = high dose methyltestosterone daily for two weeks, versus control
[9] = methyltestosterone 40 mg/kg by gavage once daily for fourteen days

Sequence of purified G6PDH (P11413 whole entry): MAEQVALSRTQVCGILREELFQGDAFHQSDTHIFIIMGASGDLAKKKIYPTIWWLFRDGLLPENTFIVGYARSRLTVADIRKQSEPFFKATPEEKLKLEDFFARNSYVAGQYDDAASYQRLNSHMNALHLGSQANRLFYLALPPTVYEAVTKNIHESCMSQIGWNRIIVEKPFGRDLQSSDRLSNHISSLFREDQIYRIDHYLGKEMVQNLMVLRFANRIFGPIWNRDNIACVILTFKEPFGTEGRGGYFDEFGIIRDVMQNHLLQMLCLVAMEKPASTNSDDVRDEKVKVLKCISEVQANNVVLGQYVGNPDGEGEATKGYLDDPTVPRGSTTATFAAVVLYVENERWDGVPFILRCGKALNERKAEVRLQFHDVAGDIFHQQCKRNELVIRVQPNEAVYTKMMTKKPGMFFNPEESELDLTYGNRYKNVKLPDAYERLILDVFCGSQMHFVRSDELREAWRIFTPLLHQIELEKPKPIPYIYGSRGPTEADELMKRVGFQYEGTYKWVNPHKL

Compound: Nc1nc(=O)c2c([nH]1)NCC(CNc1ccc(C(=O)N[C@@H](CCC(=O)O)C(=O)O)cc1)N2C=O (mixture of isomers) [Folinic Acid, Folinic acid]
- Intracellular adenosine, Brain [1, 7]: 0.72 ± 0.09 nmols/mg protein
- Intracellular adenosine, Heart [1, 7]: 12.4 ± 2.1 nmols/mg protein
- Intracellular adenosine, Liver [1, 7]: 16.4 ± 2.4 nmols/mg protein
- effect on adenosine levels, all organs studied ([1]; folinic acid administered alone): increase
- effect of coadministration on steroid-mediated adenosine depletion ([1]; folinic acid coadministered with DHEA or methyltestosterone): completely abrogated

Compound: CC(C)CCC[C@@H](C)[C@H]1CC[C@H]2[C@@H]3CC=C4C[C@@H](O)CC[C@]4(C)[C@H]3CC[C@]12C [CH, cholesterol]
- reversal of DHEA-induced growth inhibition [2]: no such effect
- prevention of DHEA-induced S phase depletion ([3]; 48 hours): very little effect
- prevention of DHEA-induced S phase depletion ([3]; 72 hours): no effect

Compound: C[C@]12CC[C@H](O)CC1=CC[C@@H]1[C@@H]2CC[C@]2(C)C(=O)CC[C@@H]12 [DHEA, dehydroepiandrosterone]
- inhibition of growth ([4]; 0-200 μM DHEA, 0-72 hours): time- and dose-dependent inhibition of growth
- exposure time after which cell number was reduced compared to controls ([4]; 12.5 μM DHEA): 72 h
- exposure time after which cell number was reduced compared to controls ([4]; 25 μM DHEA): 48 h
- exposure time after which cell number was reduced compared to controls ([4]; 50 μM DHEA): 48 h
- exposure time after which cell number was reduced compared to controls ([4]; 200 μM DHEA): 24 h
- inhibition of G6PDH enzyme activity (in words) ([5]; various doses in the μM range, compared to controls): inhibited the enzyme activity in a statistically significant manner
- inhibition of the activity of purified G6PDH compared to control ([5]; concentration not given): 72%
- proportion of cells in S phase ([6]; 200 μM DHEA, after 24 hours, continued through the treatment): decreased
- overall effect on cell cycle ([6]; 25-200 μM DHEA, 24-72 hours): G1 block in HT-29 SF cells in a time- and dose-dependent manner
- G2M phase cells ([6]; 25 or 50 μM DHEA, after 48 hours): transient increase
- percentage of cells in G1 phase ([6]; 25 or 50 μM DHEA, after 72 hours): increased
- cell cycle distribution ([6]; 25 or 50 μM DHEA, after the initial 24 hours): unchanged
- proportion of cells in S phase ([6]; 25 or 50 μM DHEA, as time of exposure increased): progressively decreased
- cell morphology ([3]; DHEA exposure (data not shown)): rounded shape
- proportion of cells in S phase ([3]; with increasing exposure time (48 and 72 hours)): progressively reduced

Compound: C[C@@](O)(CCO)CC(=O)O [MVA, mevalonic acid]
- reversal of DHEA-induced growth inhibition [2]: partially overcome
- prevention of DHEA-induced S phase depletion ([3]; 48 hours): partially prevented
- prevention of DHEA-induced S phase depletion ([3]; 72 hours): not
- prevention of DHEA-induced rounded shape ([3]; supplement added to culture medium (data not shown)): prevented

Compound: C[C@]12CCC(=O)C=C1CC[C@@H]1[C@@H]2CC[C@@]2(C)[C@H]1CC[C@]2(C)O [Methyl-testosterone, methyltestosterone]
- effect on adenosine across organs ([1]; administered daily for two weeks): multi-organ depletion of adenosine
- depletion of adenosine in brain [1, 8]: 34%
- depletion of adenosine in heart [1, 8]: 22%
- Intracellular adenosine, Brain [1, 9]: 0.42 ± 0.06 nmols/mg protein
- Intracellular adenosine, Heart [1, 9]: 8.3 ± 1.0 nmols/mg protein
- Intracellular adenosine, Liver [1, 9]: 16.5 ± 0.9 nmols/mg protein
- Intracellular adenosine, Brain ([1]; methyltestosterone 120 mg/kg): 0.32 ± 0.03 nmols/mg protein
- Intracellular adenosine, Heart ([1]; methyltestosterone 120 mg/kg): 6.0 ± 0.4 nmols/mg protein
- Intracellular adenosine, Liver ([1]; methyltestosterone 120 mg/kg): 5.1 ± 0.5 nmols/mg protein

Compound: CC(C)=CCC/C(C)=C/CC/C(C)=C/CC/C=C(\C)CC/C=C(\C)CCC=C(C)C [SQ, squalene]
- reversal of DHEA-induced growth inhibition [2]: no such effect
